Patent US5183821A, “Method for treating leukemias using N-(2-dimethylaminoethyl)-3-amino-1,8-naphthalimide for treating leukemias and solid tumors” (priority 1991, dated 1993)
“Also recorded” adds a separate entry of the source.

Columns and labels:
[1] = system: Fischer 344 rats; experiment: Five daily dose rat toxicity study; format: in vivo; conditions: for toxicity summary, rats: five daily doses i.v. (X5)
Protocol: Preclinical toxicity studies of BIDA were completed in CD2F1 Mice, Fischer 344 rats and beagle dogs (4). The animals were injected IV with a single bolus or daily for five days.
A preclinical toxicology study of benzisoquinolinedione (NSC-308847) was done at Springborn Institute for Bioresearch, Inc. using CD2 F1 mice, Fischer 344 rats and beagle dogs. Animals were injected intravenously on a single dose (X1) or five daily dose (X5) regimen. Bulk drug was titrated with 0.5N HCl to form a salt solution of benzisoquinolinedione at a pH of 5.0-6.5. Sterile 0.9% saline was used for diluting the dosing solutions and was used for the vehicle control animals.
The following summarizes the major organ toxicities resulting from IV administration of benzisoquinolinedione to rats.

[2] = system: Colon 38; experiment: Experiment 12 (first): Colon 38 s.c., saline with Tween-80, male; format: in vivo, Mouse B6 D2 F1 (BDF1)
Text: (§1) Host: Mouse B6 D2 F1 (BDF1)
(§2) Inoculum Site: Subcutaneous
(§3) Vehicle: Saline with Tween-80
Treatment schedule (relative to tumor inoculation day) days 2 and 9
(§4) Day of evaluation (relative to tumor inoculation day): 20
(§5) Parameter: Median tumor weight (MTW) estimated from tumor diameter
(§6) NCI minimal activity criteria: Percent T/C≤42
(§7) Percent T/C: Ratio of test (T) evaluation to control (C) evaluation expressed as a percentage

[3] = system: Colon 38; experiment: Experiment 14: Colon 38 s.c., saline with Tween-80, female; format: in vivo, Mouse B6 D2 F1 (BDF1); conditions: 2.00 mg/kg i.p.
Text: as §1, §2, §3
Treatment schedule (relative to tumor inoculation day): Days 2 and 9
as §4, §5, §6, §7

[4] = 12.0 mg/kg/day, listed as benzisoquinolinedione
[5] = 24.0 mg/kg/day, females, day 8-9
[6] = 24.0 mg/kg/day, listed as benzisoquinolinedione

SMILES: CN(C)CCN1C(=O)c2cccc3cc(N)cc(c23)C1=O [Example 9, 1H-Benz[de]isoquinoline-1,3(2H)-dione, 5-amino-2-[2-(dimethylamino)ethyl]]
- gross or microscopic lesions ([1]; 6.0 mg/kg): No drug-related gross or microscopic lesions were found
- Mortality / lethality ([1]; 6.0 mg/kg/day (1/2MELD10)): 0/20
- Hematologic findings ([1]; 6.0 mg/kg, listed as benzisoquinolinedione): Female rats showed moderate increases in reticulocytes on days 15 and 22, followed by a moderate decrease on day 36; also recorded: The males were not affected
- Mortality / lethality ([1]; 12.0 mg/kg/day (MELD10)): 0/20
- Reproductive findings ([1]; 12.0 mg/kg/day, day 36, listed as benzisoquinolinedione): slight decrease in testicular weight on day 36; also recorded: moderate testicular atrophy in all males
- mild to moderate diffuse bone marrow atrophy, incidence ([1]; 12.0 mg/kg/day, females, day 8): 4/5
- Hematologic findings [1, 4]: Slight decreases in hemoglobin, hematocrit and red blood cells were seen in female rats on day 8; also recorded: moderate reticulocytopenia; also recorded: male rats had a mild increase in reticulocytes on day 22; also recorded: Females had slight to mild leukocytosis on days 15 and 22; also recorded: The males had a moderate increase in WBC only on day 15; also recorded: No microscopic lesions were seen on day 36 in either sex
- Integumentary findings [1, 4]: dry yellowish-white scaly tails; also recorded: microscopic evaluation did not show any tail lesions
- mild thymic atrophy, incidence ([1]; 12.0 mg/kg/day, males, day 8): 1/5
- mild to moderate diffuse bone marrow atrophy, incidence ([1]; 12.0 mg/kg/day, males, day 8): 4/5
- Mortality / lethality ([1]; 24.0 mg/kg/day (2XMELD10), listed as benzisoquinolinedione): 5/20 and Two females were found dead and three females were sacrificed
- marked testicular atrophy, incidence ([1]; 24.0 mg/kg/day, day 36): 2/5
- moderate testicular atrophy, incidence ([1]; 24.0 mg/kg/day, day 36): 2/5
- severe testicular atrophy, incidence ([1]; 24.0 mg/kg/day, day 36): 1/5
- moderate to marked spleen atrophy, incidence ([1]; 24.0 mg/kg/day, females): 3/10
- marked jejunal epithelial degeneration, incidence ([1]; 24.0 mg/kg/day, females, day 8): 5/10
- marked necrosis of mesenteric lymph node, incidence ([1]; 24.0 mg/kg/day, females, day 8): 1/10
- mild atrophy of mesenteric lymph node, incidence ([1]; 24.0 mg/kg/day, females, day 8): 1/10
- mild to marked duodenal epithelial degeneration, incidence ([1]; 24.0 mg/kg/day, females, day 8): 5/10
- mild to marked duodenal epithelial necrosis, incidence ([1]; 24.0 mg/kg/day, females, day 8): 7/10
- mild to marked ileal epithelial necrosis, incidence ([1]; 24.0 mg/kg/day, females, day 8): 10/10
- mild to marked jejunal epithelial necrosis, incidence ([1]; 24.0 mg/kg/day, females, day 8): 9/10
- mild to severe colonic epithelial necrosis, incidence ([1]; 24.0 mg/kg/day, females, day 8): 3/10
- moderate to marked ileal epithelial degeneration, incidence ([1]; 24.0 mg/kg/day, females, day 8): 5/10
- marked to severe bone marrow atrophy, incidence [1, 5]: 10/10
- marked to severe thymic atrophy, incidence [1, 5]: 9/10
- Hepatic findings ([1]; 24.0 mg/kg/day, females, day 9): multifocal liver necrosis in two females
- Gastrointestinal findings [1, 6]: Diarrhea was observed on days 6 to 10 in males and days 6 to termination (day 8 or 9) in females; also recorded: mild to marked epithelial degeneration and necrosis of the duodenum, jejunum and ileum of both sexes; also recorded: No lesions were seen in long-term males; also recorded: emaciation (days 7-12) and dehydration (days 9-12)
- Hematologic findings [1, 6]: Mild increases in hemoglobin, hematocrit and red blood cells were seen in male rats on day 8; also recorded: moderate to slight decreases in these parameters on days 15 and 22; also recorded: No reticulocytes were observable in either sex on day 8; also recorded: marked decreases being seen on day 8, followed by moderate to marked increases above baselines on days 15 and 22; also recorded: mild thrombocytosis
- Reproductive findings [1, 6]: All five males showed decreased testicular weights on day 36; also recorded: No reproductive lesions were seen on day 8 in males or females
- marked jejunal epithelial degeneration, incidence ([1]; 24.0 mg/kg/day, males, day 8): 4/5
- marked to severe bone marrow atrophy, incidence ([1]; 24.0 mg/kg/day, males, day 8): 5/5
- marked to severe thymic atrophy, incidence ([1]; 24.0 mg/kg/day, males, day 8): 3/5
- mild necrosis of the hair bulb, incidence ([1]; 24.0 mg/kg/day, males, day 8): 2/5
- mild to marked duodenal epithelial degeneration, incidence ([1]; 24.0 mg/kg/day, males, day 8): 4/5
- mild to marked duodenal epithelial necrosis, incidence ([1]; 24.0 mg/kg/day, males, day 8): 5/5
- mild to marked ileal epithelial necrosis, incidence ([1]; 24.0 mg/kg/day, males, day 8): 4/5
- mild to marked jejunal epithelial necrosis, incidence ([1]; 24.0 mg/kg/day, males, day 8): 4/5
- moderate to marked ileal epithelial degeneration, incidence ([1]; 24.0 mg/kg/day, males, day 8): 4/5
- depression of group mean body weights ([1]; 24.0 mg/kg/day, males, day 26 as printed): 31
- body weight loss at termination ([1]; 24.0 mg/kg/day, males, day 36): 31
- moderate bone marrow atrophy, incidence ([1]; 24.0 mg/kg/day, males, day 36): 1/5
- moderate to marked hyperkeratosis, incidence ([1]; 24.0 mg/kg/day, males, day 36): 4/5
- moderate to severe thymic atrophy, incidence ([1]; 24.0 mg/kg/day, males, day 36): 2/5
- depression of group mean body weights ([1]; 24.0 mg/kg/day, males, days 15 and 22): 26
- Tail (integumentary) findings ([1]; 24.0 mg/kg/day, males, listed as benzisoquinolinedione): the tail skin was friable and sloughing in males; also recorded: severe tail necrosis in all five males
- Deaths, females ([1]; 2XMELD10, X5): one-half of the females
- toxicity summary, rats ([1]; listed as BIDA): reproductive system toxicity was seen at doses of MELD 10 and higher
- toxicity summary, rats ([1]; listed as benzisoquinolinedione): toxic on both schedules (X1, X5) to the hematopoietic system and to the male reproductive system; also recorded: gastrointestinal, tail lesions and possibly hepatotoxicity; also recorded: Toxicity to the testes and tails was delayed and had not reversed by day 36
- Median tumor weight (MTW) ([2]; 2.00 mg/kg i.p.): 685
- Percent T/C ([2]; 2.00 mg/kg i.p.): 72%
- Median tumor weight (MTW) ([2]; 4.00 mg/kg i.p.): 775
- Percent T/C ([2]; 4.00 mg/kg i.p.): 81%
- Median tumor weight (MTW) ([2]; 8.00 mg/kg i.p.): 861
- Percent T/C ([2]; 8.00 mg/kg i.p.): 90%
- Median tumor weight (MTW) ([2]; 16.00 mg/kg i.p.): 733
- Percent T/C ([2]; 16.00 mg/kg i.p.): 77%
- Median tumor weight (MTW) ([2]; 32.00 mg/kg i.p.): 270
- Percent T/C ([2]; 32.00 mg/kg i.p.): 28%
- Median tumor weight (MTW) ([2]; 64.00 mg/kg i.p.): 252
- Percent T/C ([2]; 64.00 mg/kg i.p.): 26%
- Median tumor weight (MTW) [3]: 2141
